Reference: US20240294881A1, “CELL CULTURE SUPPLEMENT FOR PRODUCING STEM CELLS, AND METHOD FOR PRODUCING STEM CELLS” (OPTICELL, INC, priority 2021, published 2024)

Key:
[1] = test system: healthy human neonatal fibroblasts; assay: Immunostaining of stem cell marker proteins in neonatal fibroblast spheroids; type: cell-based
Procedure: To confirm whether stem cells were induced in fibroblast spheroids, the expression of stem cell marker proteins was examined by immunostaining with fluorescent dye-labeled antibodies. An aqueous solution of the polypeptide represented by formula (1) (0.125%) (cell culture supplement) was added to a commercial polystyrene-made 96-well round-bottom culture vessel (Nunclon Delta 96U Bottom, Thermo Fisher Scientific) at 100 μL/well, and the coating treatment with the cell culture supplement was completed in the same manner as in Example 2. Fibroblasts were maintained and cultured in a serum-free medium (Fujifilm Wako Pure Chemical Corporation; DMEM/F12 medium, human serum albumin recombinant 0.5 mg/ml, human transferrin recombinant 10 μg/mL, basic-FGF 5 ng/ml, and insulin 2.5 μg/mL). Fibroblasts floating in the medium were seeded in the culture vessel coated with the cell culture supplement at 4×10^4 cells/well/100 μL and cultured at 37° C. under 5% CO2 conditions. Spheroids were collected from the 96-well round-bottom culture vessel on day 20 from the start of culture, and cell fixation was performed with a 4% paraformaldehyde solution, followed by immunostaining. For fluorescence-labeled antibodies, three antibodies for detection of human stem cell marker proteins (NL557 fluorescent dye-labeled anti-SOX2 antibody (fluorescent orange), NL493 fluorescent dye-labeled anti-NANOG antibody (fluorescent green), and NL637-labeled anti-OCT4 antibody (fluorescent red), R&D Systems)) were used and reacted simultaneously to perform observation with a fluorescence microscope.

[2] = test system: healthy human adult mammary gland epithelial cells; assay: Real-time PCR of stem cell and three germ layer marker genes in mammary gland epithelial cell spheroids; type: cell-based
Procedure: The analysis of expression of gene mRNA was performed by real-time PCR.
Specifically, on day 20 from the start of culture, spheroids were collected in a 15-mL centrifuge tube and centrifuged, and then washed with phosphate buffered saline (−) and collected. Two-dimensionally cultured cells in the culture vessel that was not coated with the cell culture supplement (control) (day 0) were washed with PBS (−) after removal of the medium, and the cells were detached from the plate with 0.05% trypsin-EGTA and dissociated, followed by collecting the cells in a 15-mL centrifuge tube and washing with PBS (−) again. A NucleoZOL reagent (Macherey-Nagel) was added to the spheroids, and RNA extracted according to the protocol recommended by the reagent manufacturer was determined to be template RNA. For real-time PCR analysis, PCR probes from QuantiFast Probe RT-PCR Kits (QIAGEN; No. 204454) and TagMan Gene Expression Assay Probe (Thermo Fisher Scientific) were used. PCR analysis was performed with a Rotor-Gene Q (QIAGEN) apparatus. The genes targeted for detection were the following three transcription factors: SOX2 (sex-determining region Y-box 2), OCT4 (octamer binding transcription factor 4), and NANOG (homeodomain transcription factor) as the probes for detecting the expression of undifferentiated stem cell marker genes; and β-actin was used as an endogenous control gene (FIG. 16).
For probes for detection of genes associated with primordial three germ layers, the following three triploblastic marker genes were used: SOX17 (sex-determining region Y-box 17; endoderm), GATA6 (GATA family of zinc finger transcription factors; mesoderm), and MAP2 (microtubule associated protein 2: ectoderm). For an endogenous control gene, TaqMan Gene Expression Assay Probe of ß-actin was used (FIG. 17).
In the gene expression analysis, relative quantification was performed according to the ΔΔCt method (Delta Delta Ct method). The results of analysis according to the ΔΔCt method show the amount of a gene expressed by control cells under the conditions of “no cell culture supplement, flat-bottom 2D growth, day 0” as “1.0” in relative terms, and the increase rate in “the expression level in spheroid proliferation on day 20” was determined by comparison.

[3] = day 20 of 3D spheroid culture, coated 96-well, 2D adhesion control without supplement = 1.0, ΔΔCt
[4] = day 20 of 3D spheroid culture, 2D control without supplement day 0 = 1.0, ΔΔCt
[5] = spheroids cultured for 20 days (FIG. 17 legend)

## (Pro-Hyp-Gly)n [cell culture supplement]
[1]; spheroids day 20, NL493-labeled anti-NANOG antibody
  NANOG stem cell marker protein, fluorescence (green): detected
[1]; spheroids day 20, NL557-labeled anti-SOX2 antibody
  SOX2 stem cell marker protein, fluorescence (orange): detected
[1]; spheroids day 20, NL637-labeled anti-OCT4 antibody
  OCT4 stem cell marker protein, fluorescence (red): detected
[2]; day 20 of 3D spheroid culture
  GATA6 (mesoderm marker) gene expression: no gene expression of GATA6 (mesoderm marker) was detected
[2]; [3]
  NANOG gene expression level (increase vs control): 28.7 fold
  OCT4 gene expression level (increase vs control): 1.5 fold
  SOX2 gene expression level (increase vs control): 24.0 fold
[2]; [4]
  MAP2 gene expression level (increase vs control): 2.7 fold
  SOX17 gene expression level (increase vs control): 124.7 fold
[2]; [5]
  FOXA2 (endoderm) mRNA expression level: decreased
  GATA4 (mesoderm) mRNA expression: undetectable
